Article PMC6055880, “Virtual Fragment Screening Identification of a Quinoline‐5,8‐dicarboxylic Acid Derivative as a Selective JMJD3 Inhibitor” (Chemmedchem, 2018)
One block for each compound: values may come before it.

Experiments:
Assay type in all cases: biochemical
[1] = target: T1, JMJD1A (Homo sapiens, UniProt Q9Y4C1); experiment: AlphaScreen JMJD1A demethylase inhibition (selectivity)
T1 construct: purchased BPS Bioscience (contract assay)
T1 sequence (Q9Y4C1 1-1321): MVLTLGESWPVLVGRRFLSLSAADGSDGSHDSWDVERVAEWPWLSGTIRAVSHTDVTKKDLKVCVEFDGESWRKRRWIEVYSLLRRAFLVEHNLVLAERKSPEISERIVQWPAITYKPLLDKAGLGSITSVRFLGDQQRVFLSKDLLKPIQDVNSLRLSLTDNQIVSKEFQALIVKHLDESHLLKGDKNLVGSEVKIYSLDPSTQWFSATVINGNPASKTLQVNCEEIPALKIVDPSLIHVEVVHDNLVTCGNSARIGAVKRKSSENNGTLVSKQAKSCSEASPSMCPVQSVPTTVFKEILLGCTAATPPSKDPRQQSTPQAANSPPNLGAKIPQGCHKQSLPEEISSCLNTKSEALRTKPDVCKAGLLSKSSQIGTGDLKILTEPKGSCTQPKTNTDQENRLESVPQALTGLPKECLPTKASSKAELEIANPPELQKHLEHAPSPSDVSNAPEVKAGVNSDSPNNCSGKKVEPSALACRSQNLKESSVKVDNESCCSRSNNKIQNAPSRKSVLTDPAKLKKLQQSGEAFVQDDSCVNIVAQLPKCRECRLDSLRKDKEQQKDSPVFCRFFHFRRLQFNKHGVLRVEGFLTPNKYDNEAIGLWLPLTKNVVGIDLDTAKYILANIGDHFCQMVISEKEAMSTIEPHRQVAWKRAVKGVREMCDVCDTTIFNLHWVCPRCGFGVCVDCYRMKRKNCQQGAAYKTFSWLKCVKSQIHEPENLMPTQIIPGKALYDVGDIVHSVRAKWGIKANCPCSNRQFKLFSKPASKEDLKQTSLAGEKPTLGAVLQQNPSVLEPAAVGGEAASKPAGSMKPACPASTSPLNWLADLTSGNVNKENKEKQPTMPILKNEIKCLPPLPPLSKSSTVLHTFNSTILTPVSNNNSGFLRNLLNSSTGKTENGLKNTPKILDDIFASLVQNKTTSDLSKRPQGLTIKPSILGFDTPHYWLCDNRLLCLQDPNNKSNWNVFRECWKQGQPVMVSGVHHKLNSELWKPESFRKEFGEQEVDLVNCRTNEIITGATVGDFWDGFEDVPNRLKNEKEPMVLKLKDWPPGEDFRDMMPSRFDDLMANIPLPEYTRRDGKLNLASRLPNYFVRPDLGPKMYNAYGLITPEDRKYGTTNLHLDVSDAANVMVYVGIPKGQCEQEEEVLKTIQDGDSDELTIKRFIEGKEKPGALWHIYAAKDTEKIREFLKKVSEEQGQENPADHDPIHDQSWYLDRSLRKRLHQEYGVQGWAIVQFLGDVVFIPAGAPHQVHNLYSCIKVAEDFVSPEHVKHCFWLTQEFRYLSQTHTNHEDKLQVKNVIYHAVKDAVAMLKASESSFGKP
Excerpt: (§1) Compounds 4 and 5 also appreciably decrease enzyme activity by 65 % and 60 %, respectively. […] We proceeded to investigate the inhibitory activity of 3 further by evaluation of its IC50 value against JMJD3. The results highlighted a low micromolar activity of compound 3 against JMJD3 (Table 1). […] Similar outcomes were obtained for 3 versus JMJD2C and JMJD2D (Table 1). […] Relative to JMJD1A and FBXL11, we found a decrease in enzymatic activity (Table 1) toward Jarid1A and Jarid1B of 33 % and 26 % by 3.
(§2) 2,4-pyridine dicarboxylic acid (2,4-PC) is purchased from Acros Organics (New Jersey, […]
(§3) GSK J1 is purchased from Sigma Aldrich (Italy, Catalog number SML0709). […]
(§4) After enzymatic reactions, 5 µl of anti-Mouse Acceptor beads (PerkinElmer, diluted 1:500 with 1x detection buffer) or 5 µl of anti-Rabbit Acceptor beads (PerkinElmer, diluted 1:500 with 1x detection buffer) and 5 µl of Primary antibody (BPS, diluted 1:200 with 1x detection buffer) were added to the reaction mix. […] In 30 minutes, the samples were measured in AlphaScreen microplate reader (EnSpire Alpha 2390 Multilabel Reader, PerkinElmer). […]
(§5) Enzyme activity assays were performed in duplicates at each concentration. The A-screen intensity data were analyzed and compared. […] The IC 50 value was determined by the concentration causing a half -maximal percent activity.

[2] = target: T2, Jarid1B (Homo sapiens, UniProt Q9UGL1); experiment: AlphaScreen Jarid1B demethylase inhibition (selectivity)
T2 construct: purchased BPS Bioscience (contract assay)
T2 sequence (Q9UGL1 whole entry): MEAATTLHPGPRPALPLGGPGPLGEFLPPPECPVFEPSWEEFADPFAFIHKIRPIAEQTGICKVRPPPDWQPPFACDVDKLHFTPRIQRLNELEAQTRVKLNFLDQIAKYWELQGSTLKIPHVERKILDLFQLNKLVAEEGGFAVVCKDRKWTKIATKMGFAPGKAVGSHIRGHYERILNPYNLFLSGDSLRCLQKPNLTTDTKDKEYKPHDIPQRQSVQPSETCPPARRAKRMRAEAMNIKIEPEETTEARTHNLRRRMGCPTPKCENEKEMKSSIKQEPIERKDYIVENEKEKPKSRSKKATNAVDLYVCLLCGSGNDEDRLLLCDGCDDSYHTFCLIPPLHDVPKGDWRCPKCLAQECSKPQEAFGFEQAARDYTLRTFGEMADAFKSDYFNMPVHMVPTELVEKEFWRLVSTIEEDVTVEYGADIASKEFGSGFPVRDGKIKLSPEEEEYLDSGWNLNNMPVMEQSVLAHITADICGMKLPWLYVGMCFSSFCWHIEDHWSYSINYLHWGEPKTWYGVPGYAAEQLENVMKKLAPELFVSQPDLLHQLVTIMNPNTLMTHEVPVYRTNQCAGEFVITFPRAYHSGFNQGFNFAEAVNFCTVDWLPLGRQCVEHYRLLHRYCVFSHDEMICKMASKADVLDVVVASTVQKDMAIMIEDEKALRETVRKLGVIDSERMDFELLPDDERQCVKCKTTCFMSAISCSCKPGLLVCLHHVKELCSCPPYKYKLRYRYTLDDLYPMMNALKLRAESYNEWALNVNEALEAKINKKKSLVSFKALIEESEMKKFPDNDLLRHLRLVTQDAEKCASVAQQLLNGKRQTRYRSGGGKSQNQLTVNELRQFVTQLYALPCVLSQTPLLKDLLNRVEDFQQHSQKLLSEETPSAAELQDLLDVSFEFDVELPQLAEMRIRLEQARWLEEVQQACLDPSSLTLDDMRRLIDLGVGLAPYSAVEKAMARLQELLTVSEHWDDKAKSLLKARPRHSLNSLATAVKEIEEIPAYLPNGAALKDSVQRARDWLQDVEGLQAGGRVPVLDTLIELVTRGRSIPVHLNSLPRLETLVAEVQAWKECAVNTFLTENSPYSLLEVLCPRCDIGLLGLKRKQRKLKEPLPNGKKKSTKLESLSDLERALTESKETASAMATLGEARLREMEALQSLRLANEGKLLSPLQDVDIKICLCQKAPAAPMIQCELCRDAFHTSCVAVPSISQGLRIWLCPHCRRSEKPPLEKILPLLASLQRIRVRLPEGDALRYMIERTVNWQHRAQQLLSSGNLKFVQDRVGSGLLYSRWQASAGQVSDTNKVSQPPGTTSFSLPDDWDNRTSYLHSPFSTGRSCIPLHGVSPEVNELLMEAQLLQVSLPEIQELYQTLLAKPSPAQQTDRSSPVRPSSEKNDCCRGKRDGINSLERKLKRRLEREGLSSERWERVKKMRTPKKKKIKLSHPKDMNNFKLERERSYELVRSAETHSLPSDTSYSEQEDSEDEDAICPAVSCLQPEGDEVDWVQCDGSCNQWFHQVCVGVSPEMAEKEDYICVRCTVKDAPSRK
Excerpt: as §1, §2, §3, §4, §5

[3] = target: T3, Jarid1A (Homo sapiens, UniProt P29375); experiment: AlphaScreen Jarid1A demethylase inhibition (selectivity)
T3 construct: purchased BPS Bioscience (contract assay)
T3 sequence (P29375 whole entry): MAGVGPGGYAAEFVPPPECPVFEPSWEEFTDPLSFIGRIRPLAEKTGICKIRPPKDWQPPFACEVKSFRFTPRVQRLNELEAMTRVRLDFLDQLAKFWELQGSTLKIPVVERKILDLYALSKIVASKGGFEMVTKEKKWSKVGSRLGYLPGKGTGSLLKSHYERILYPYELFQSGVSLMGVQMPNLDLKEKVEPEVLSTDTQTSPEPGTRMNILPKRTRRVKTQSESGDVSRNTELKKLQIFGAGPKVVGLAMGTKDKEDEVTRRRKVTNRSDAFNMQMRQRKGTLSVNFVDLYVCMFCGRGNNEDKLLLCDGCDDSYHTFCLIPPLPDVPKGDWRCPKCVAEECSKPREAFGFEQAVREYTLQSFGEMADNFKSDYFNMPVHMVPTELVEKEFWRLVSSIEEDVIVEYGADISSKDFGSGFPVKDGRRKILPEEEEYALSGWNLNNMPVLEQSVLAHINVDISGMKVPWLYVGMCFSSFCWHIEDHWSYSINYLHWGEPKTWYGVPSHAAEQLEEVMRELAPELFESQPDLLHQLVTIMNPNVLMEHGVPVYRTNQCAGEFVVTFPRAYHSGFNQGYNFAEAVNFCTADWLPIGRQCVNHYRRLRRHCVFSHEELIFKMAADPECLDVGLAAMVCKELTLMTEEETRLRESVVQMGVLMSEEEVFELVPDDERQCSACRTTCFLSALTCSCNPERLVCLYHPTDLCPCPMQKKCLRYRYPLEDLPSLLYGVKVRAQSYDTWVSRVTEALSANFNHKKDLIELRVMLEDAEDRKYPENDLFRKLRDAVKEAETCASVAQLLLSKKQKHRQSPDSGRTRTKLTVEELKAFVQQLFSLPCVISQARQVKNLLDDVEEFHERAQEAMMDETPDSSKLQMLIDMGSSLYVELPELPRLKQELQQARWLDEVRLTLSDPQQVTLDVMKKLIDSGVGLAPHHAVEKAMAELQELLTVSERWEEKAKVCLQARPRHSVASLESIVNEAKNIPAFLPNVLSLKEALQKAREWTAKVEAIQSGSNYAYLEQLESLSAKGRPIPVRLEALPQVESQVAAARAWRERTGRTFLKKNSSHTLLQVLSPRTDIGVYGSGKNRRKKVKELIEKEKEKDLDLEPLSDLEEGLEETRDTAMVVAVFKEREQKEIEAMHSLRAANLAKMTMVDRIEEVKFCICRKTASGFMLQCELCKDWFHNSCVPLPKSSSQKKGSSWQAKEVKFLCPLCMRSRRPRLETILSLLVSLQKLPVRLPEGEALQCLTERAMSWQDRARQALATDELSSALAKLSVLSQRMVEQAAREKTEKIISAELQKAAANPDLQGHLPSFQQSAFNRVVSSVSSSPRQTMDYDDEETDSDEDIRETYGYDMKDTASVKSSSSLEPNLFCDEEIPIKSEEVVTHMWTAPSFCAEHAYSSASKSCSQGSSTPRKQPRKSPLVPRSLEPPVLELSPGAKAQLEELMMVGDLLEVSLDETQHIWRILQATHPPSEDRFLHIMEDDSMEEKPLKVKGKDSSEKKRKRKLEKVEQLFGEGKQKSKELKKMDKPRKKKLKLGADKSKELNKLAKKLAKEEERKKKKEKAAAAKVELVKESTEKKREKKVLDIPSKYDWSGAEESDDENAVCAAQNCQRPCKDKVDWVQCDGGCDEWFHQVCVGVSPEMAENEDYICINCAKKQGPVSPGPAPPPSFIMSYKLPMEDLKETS
Excerpt: as §1, §2, §3, §4, §5

[4] = target: T4, UTX (Homo sapiens, UniProt O15550); experiment: AlphaScreen UTX demethylase inhibition (selectivity); conditions: at 10 μM; NI = no significant inhibition at 10 μM
T4 construct: purchased BPS Bioscience (contract assay)
Excerpt: as §1, §2, §3, §4, §5

[5] = target: T5, FBXL11 (Homo sapiens, UniProt Q9Y2K7); experiment: AlphaScreen FBXL11 demethylase inhibition (selectivity)
T5 construct: purchased BPS Bioscience (contract assay)
T5 sequence (Q9Y2K7 1-1162): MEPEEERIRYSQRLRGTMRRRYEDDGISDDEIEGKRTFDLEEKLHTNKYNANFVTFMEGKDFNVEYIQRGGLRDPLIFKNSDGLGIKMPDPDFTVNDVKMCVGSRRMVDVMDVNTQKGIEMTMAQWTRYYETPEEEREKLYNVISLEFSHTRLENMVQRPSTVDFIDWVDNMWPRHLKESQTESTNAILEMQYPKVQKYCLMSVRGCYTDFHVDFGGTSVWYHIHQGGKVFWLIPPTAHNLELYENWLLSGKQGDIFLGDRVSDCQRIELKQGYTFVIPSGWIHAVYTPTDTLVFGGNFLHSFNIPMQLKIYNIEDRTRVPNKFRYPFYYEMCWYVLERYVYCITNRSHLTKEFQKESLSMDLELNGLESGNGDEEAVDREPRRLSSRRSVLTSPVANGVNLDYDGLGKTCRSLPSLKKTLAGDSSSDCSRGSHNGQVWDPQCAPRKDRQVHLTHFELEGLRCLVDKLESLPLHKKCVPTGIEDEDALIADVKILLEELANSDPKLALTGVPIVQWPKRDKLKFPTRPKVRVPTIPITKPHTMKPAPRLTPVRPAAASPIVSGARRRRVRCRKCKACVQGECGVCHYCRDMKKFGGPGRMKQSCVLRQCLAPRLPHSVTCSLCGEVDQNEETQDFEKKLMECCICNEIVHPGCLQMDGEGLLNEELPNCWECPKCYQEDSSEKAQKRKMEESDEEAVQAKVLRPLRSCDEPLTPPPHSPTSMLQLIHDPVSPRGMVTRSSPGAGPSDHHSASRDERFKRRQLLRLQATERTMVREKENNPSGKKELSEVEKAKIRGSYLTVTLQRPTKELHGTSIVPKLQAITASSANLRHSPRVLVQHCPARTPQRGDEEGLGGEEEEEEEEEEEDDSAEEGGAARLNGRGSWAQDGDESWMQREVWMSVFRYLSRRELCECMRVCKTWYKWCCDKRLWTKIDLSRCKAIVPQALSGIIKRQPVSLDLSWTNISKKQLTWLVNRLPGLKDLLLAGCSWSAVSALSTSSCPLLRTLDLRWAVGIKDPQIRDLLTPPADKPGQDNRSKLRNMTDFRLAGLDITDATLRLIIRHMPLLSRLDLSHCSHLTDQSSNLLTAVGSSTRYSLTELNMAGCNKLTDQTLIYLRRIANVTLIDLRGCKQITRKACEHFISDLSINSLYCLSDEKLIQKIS
Excerpt: as §1, §2, §3, §4, §5

[6] = target: JMJD3 (Homo sapiens, UniProt O15054); experiment: AlphaScreen JMJD3 demethylase inhibition; conditions: for inhibition at 25 µM: compound at 25 μM
Sequence of JMJD3 (O15054 whole entry): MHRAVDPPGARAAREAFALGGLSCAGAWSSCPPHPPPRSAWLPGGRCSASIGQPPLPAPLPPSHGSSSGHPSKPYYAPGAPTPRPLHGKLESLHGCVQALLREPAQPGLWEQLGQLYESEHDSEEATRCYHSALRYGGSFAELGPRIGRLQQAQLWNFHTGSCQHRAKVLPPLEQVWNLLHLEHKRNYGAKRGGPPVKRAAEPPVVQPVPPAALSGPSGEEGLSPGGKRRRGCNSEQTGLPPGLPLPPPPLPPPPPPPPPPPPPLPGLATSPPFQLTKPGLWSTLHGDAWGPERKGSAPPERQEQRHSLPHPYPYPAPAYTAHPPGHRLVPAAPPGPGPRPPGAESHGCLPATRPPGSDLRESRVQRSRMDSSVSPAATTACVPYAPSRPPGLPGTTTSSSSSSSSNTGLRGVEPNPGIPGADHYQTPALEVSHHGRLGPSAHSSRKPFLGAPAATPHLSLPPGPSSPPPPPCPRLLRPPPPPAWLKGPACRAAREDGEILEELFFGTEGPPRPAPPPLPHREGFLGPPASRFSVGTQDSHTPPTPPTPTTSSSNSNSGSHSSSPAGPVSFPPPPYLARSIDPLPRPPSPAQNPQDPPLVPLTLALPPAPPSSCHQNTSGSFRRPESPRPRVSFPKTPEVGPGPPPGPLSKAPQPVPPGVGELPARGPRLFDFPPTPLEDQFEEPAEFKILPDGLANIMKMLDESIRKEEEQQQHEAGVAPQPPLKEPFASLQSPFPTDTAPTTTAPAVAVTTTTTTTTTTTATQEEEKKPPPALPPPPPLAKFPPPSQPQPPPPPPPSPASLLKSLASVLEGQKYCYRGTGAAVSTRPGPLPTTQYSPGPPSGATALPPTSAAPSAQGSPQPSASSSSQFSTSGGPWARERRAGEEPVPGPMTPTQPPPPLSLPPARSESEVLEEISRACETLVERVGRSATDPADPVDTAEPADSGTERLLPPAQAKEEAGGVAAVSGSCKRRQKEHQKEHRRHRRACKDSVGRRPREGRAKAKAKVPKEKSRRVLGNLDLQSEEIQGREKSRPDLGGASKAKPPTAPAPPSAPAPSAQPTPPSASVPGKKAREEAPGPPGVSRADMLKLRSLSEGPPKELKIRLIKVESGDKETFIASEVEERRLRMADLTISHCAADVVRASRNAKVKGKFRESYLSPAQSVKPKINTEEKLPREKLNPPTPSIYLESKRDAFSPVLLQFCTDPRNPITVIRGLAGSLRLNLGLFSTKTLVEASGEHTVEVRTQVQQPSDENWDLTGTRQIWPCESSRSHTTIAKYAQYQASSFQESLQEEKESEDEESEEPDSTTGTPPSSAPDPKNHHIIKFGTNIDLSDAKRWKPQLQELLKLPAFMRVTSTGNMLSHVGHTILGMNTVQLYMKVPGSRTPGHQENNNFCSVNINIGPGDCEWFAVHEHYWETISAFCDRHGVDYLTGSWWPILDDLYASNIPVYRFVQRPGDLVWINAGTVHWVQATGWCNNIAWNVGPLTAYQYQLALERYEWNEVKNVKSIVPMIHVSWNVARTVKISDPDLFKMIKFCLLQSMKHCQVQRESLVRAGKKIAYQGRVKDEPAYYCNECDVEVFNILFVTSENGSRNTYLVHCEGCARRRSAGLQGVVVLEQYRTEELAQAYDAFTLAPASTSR
Excerpt: as §1, §2
GSK J1 is purchased from Sigma Aldrich (Italy, Catalog number SML0709).
JIB-04 is purchased from Sigma-Aldrich (St. Louis, MO, Catalog number SML0808).
AlphaLISA anti-mIgG acceptor beads from PerkinElmer (Santa Clara, CA, Catalog number […]
AlphaLISA anti-rIgG acceptor beads from PerkinElmer (Santa Clara, CA, Catalog number […]
AlphaScreen Streptavidin-conjaugated donor beads from PerkinElmer (Santa Clara, CA, […]
Primary antibody 2 from BPS (Catalog number 52140B1).
Primary antibody 5 from BPS (Catalog number 52140E).
Primary antibody 6 from BPS (Catalog number 52140F).
Primary antibody 16-2 from BPS (Catalog number 52140P2).
Primary antibody 17-3 from BPS(Catalog number 52140Q3). […]
Biotinylated histone H3 peptide substrate (UTX and JMJD3) (BPS and Anaspec). […]
JMJD3 Assay Buffer from BPS. […]
4x Detection buffer from BPS (Catalog number 52301).
All of the enzymatic reactions were conducted at room temperature for 60 minutes in a 10 µl mixture containing assay buffer, histone H3 peptide substrate, demethylase enzyme, and the test compound. These 10 µl reactions were carried out in wells of 384-well Optiplate (PerkinElmer). The serial dilution of the compounds was first performed in 100% DMSO with the highest concentration at 1 mM. Each intermediate compound dilution (in 100% DMSO) will then get directly diluted 30x fold into assay buffer for 3.3x conc (DMSO). Enzyme only and blank only wells have a final DMSO concentration of 1%. From this intermediate step, 3 µl of compound is added to 4 µl of demethylase enzyme dilution is incubated for 30 minutes at room temperature. After this incubation, 3 µl of peptide substrate is added. The final DMSO concentration is 1%.
After enzymatic reactions, 5 µl of anti-Mouse Acceptor beads (PerkinElmer, diluted 1:500 with 1x detection buffer) or 5 µl of anti-Rabbit Acceptor beads (PerkinElmer, diluted 1:500 with 1x detection buffer) and 5 µl of Primary antibody (BPS, diluted 1:200 with 1x detection buffer) were added to the reaction mix. After brief shaking, plate was incubated for 30 minutes. Finally, 10 µl of AlphaScreen Streptavidin-conjugated donor beads (Perkin, diluted 1:125 with 1x detection buffer) were added. In 30 minutes, the samples were measured in AlphaScreen microplate reader (EnSpire Alpha 2390 Multilabel Reader, PerkinElmer).
For JMJD3, Donor and acceptor beads and primary antibody were incubated for 1 h,[9] for the remaining enzymes for 30’.
5 µL of AlphaScreen assay buffer containing EDTA (30 mM) and NaCl (800 mM) to stop the […]
Except for JMJD3, the experiments were performed by BPS Bioscience.
Enzyme activity assays were performed in duplicates at each concentration. The A-screen intensity data were analyzed and compared. In the absence of the compound, the intensity in each data set was defined as 100% activity. In the absence of enzyme, the intensity in each data set was defined as 0% activity. The values of % activity versus a series of compound concentrations were then plotted using non-linear regression analysis of Sigmoidal dose-response curve generated with the equation Y=B+(T-B)/1+10((LogEC50-X)×Hill Slope), where Y=percent activity, B=minimum percent activity, T=maximum percent activity, X= l ogarithm of compound and Hill Slope=slope factor or Hill coefficient. The IC 50 value was determined by the concentration causing a half -maximal percent activity.

inhibition at 10 µM ([1]; at 10 μM, read-out: Percent Inhibition JMJD1A): 12% | IC50 ([1]; footnote b of Table 1): > 10 µM | inhibition at 10 µM ([2]; at 10 μM, read-out: Percent Inhibition Jarid1B): 26% | IC50 ([2]; footnote b of Table 1): > 10 µM | inhibition at 10 µM ([3]; at 10 μM, read-out: Percent Inhibition Jarid1A): 33% | IC50 ([3]; footnote b of Table 1): > 10 µM | Percent Inhibition UTX [4]: no significant inhibition | inhibition at 10 µM ([5]; at 10 μM, read-out: Percent Inhibition FBXL11): 15% | IC50 ([5]; footnote b of Table 1): > 10 µM | inhibition at 25 µM [6]: 90% | IC50 ([6]; read-out: IC50±SEM JMJD3): 1.52 ± 0.5 µM
Structure (SMILES): COc1ncc(-c2cnc3c(C(=O)O)ccc(C(=O)O)c3c2)c(OC)n1 [Compound 3, 3‐(2,4‐dimethoxypyrimidin‐5‐yl)quinoline‐5,8‐dicarboxylic acid]

inhibition at 25 µM [6]: 65%
Structure (SMILES): NS(=O)(=O)c1ccc(-c2cnc3c(C(=O)O)ccc(C(=O)O)c3c2)cc1 [Compound 4]

inhibition at 25 µM [6]: 60%
Structure (SMILES): O=C(O)c1ccc(-c2cnc3c(C(=O)O)ccc(C(=O)O)c3c2)s1 [Compound 5]

inhibition at 25 µM [6]: ~25%
Structure (SMILES): COc1cc(-c2cnc3c(C(=O)O)ccc(C(=O)O)c3c2)c(OC)nn1 [Compound 6]

inhibition at 25 µM [6]: ~12%
Structure (SMILES): COc1cc(-c2cnc3c(C(=O)O)ccc(C(=O)O)c3c2)ccc1F [Compound 7]
